Here are results for one compound from US11826369B2, “Targeting the TLK1/NEK1 axis in prostate cancer” (Board of Supervisors of Louisiana State University and …, priority 2019, dated 2023).

Values joined by “and” are separate entries in the source; they are usually repeats but may differ in a detail not shown here. Equal values may be shown once. “Also recorded” adds a separate entry of the source.

The subject of series [1] is C. elegans. In words: Behavioral assays in C. elegans. In kind it is in vivo. The method, then: FIGS. 19A-19C show behavioral assays in C. elegans. In FIG. 15A, for the pharyngeal pumping assay, wild-type animals (N2 strain) were transferred to plates with diluted DMSO (Control) or drug (J-54 or trifluoperazine) at 160 μM final concentration for 90 min before quantifying pharyngeal pumping see SI methods). The inventors counted visible movement of the grinder (pharyngeal contractions) for 30 sec to obtain the pumping rate (N=45). […] Inhibition of pharyngeal pumping by trifluoperazine (TFP), a typical PTH antipsychotic, is attributed to its known activity as a dopamine and calmodulin antagonist. In FIG. 15B. foraging, regulated by serotonin and dopamine, was studied in wild-type animals evaluated in the presence of DMSO (Control) or J54 at a high dose of 160 μM vs. TFP at 40 μM. The number of omega turns (head touches body) and reversals were then counted over the next 3 min to quantify search behavior for each group (N=13 per group). […] Dopamine produces immobility in C. elegans after 2-3 hr of exposure. Antipsychotic drugs, such as haloperidol, that potently block D2 dopamine receptors largely counteract the effects of dopamine, i.e., more animals continue to move on plates that include dopamine plus drug. Wild-type animals were incubated on 60 agar plates with bacteria and diluted DMSO (Control) or J54 or haloperidol at 160 μM final concentrations. After 1 hr on these plates, they were transferred to 60 mm agar plates with bacteria that also contained dopamine (final concentration 25 mM) plus diluted DMSO (Control) or else J-54 or haloperidol at final concentrations of 160 μM. After 3 hr on the dopamine plates, the inventors examined movement and counted animals as moving if they traversed half their body length in either the forward or backward direction during a 5-sec observation period. The inventors then calculated the percentage of animals moving and repeated this experiment three times to confirm the effects of drug.
We then did a general assessment of mice following injections of J54. […]

Series [2] concerns RWPE1 (normal prostate) cell line. In words: Cell proliferation assay, normal prostate cells. In kind it is cell-based, human. On the procedure:
(§1) All experiments were conducted in triplicates. […] The cells were grown for 2-3 weeks and stained with crystal violet. All experiments were conducted in triplicates. […] The cell lines used were human “normal” RWPE-1, LNCaP, (LNCaP-derivative) C4-2B, 22RV1, DU14, PC3, and mouse TRAMP-C2. FIGS. 11C and 11D show cell proliferation of LNCaP and TRAMP-C2 were determined during a 3 days incubation with different concentration of J54 (MTS assay). All experiments were conducted in triplicates. […] Representative analysis of two independent experiments are shown.
(§2) J54 in combination with anti-androgen (Bicalutamide) induces apoptosis in AS PCa cells. […] The inventors thus tested the same panel of cells in androgen containing medium (FBS) by proliferation assays. […] Note that VCaP cells were 60% inhibited by J54 alone, consistent with their elevated replication stress-driven DDR and checkpoint activation (FIG. 12E), which when suppressed with J54 could lead to apoptosis. Clonogenic assays are unable to distinguish the effects of a DNA damaging agent, which can result in either an impaired or delayed resumption of growth (cell division) or loss of viability due to increased killing of the initial population. The inventors thus measured in LNCaP and TRAMP-C2 cells the early change in cell number (MTT assay) over 72 h with J54 alone.

Series [3] has as its system LNCaP and TRAMP-C2 cells. The experiment in a line: Early change in cell number (MTT assay) over 72 h. Particulars: J54 alone. In kind it is cell-based. On the procedure:
as §1, §2
(Tetrazolium dyes change colour on reduction, which living cells bring about.)

Series [4] is described as follows: Pharmacokinetics, plasma distribution after IP injection. Type of series: in vivo, mice. An excerpt: FIGS. 18A-18C show pharmacokinetics plasma distribution of J54.
The inventors sought to establish if the addition of J54 could suppress the resurgence of tumor growth of LNCaP xenografts and their latter conversion to CRPC. Following formation of sizeable tumors (˜200 mm^3), castration or anti-androgens arrest the progression of LNCaP xenografts for some time (2-3 weeks), while subsequently the tumors start growing again at an accelerated rate which is refractory to ADT (AI). Therefore, the inventors injected LNCaP cells in matrigel in both flanks of NOD-SCID mice, and then randomly assigned them to four treatment groups (n=5 per group×2 independent experiments), as shown in FIGS. 13A-13C. […] The inventors should also point out that the inventors treated the mice with J54 only bi-weekly due to the favorable pharmacokinetics, where maximal plasma concentration of 100 ng/ml ([…]) were reached 2 h after IP injection, and was still present at −6 ng/ml (6 μM) after 24 h (FIG. 18A-18C).

Series [5] deals with LNCaP, C4-2B, 22RV1, DU14, PC3, TRAMP-C2. The experiment in a line: Cell proliferation assays of PCa cell line panel. Type of series: cell-based. Particulars: androgen containing medium (FBS). On the procedure: as §1, §2
Series [6] can be described thus: General assessment of mice following injections. Type of series: in vivo. The text has this: We then did a general assessment of mice following injections of J54. […] To get a better assessment of the possible behavioral effects of J54, the inventors used C. elegans that has a simple but complete nervous system and has been well characterized for its responses to anti-psychotic drugs, including actions at serotonin or dopamine receptors.

The test system of series [7] is VCaP cells. In words: Clonogenic assay, VCaP. In kind it is cell-based. Particulars: J54 alone. On the procedure: as §1, §2
The test system of series [8] is LNCaP, VCaP and TRAMP-C2. In words: Clonogenic assays of AS PCa cells. In kind it is cell-based. On the procedure: as §1, §2

Regarding `c1ccc2c(c1)Sc1ccccc1N2CCN1CCOCC1` [J54, 4-(2-(10H-phenothiazin-10-yl)ethyl) morpholine], the pharyngeal pumping rate entry in series [1] (160 μM, 90 min) was “reduced the pumping rate but to a lesser extent than a much lower concentration of TFP”. In series [1] (prolonged exposure), the toxicity to worms entry was “not toxic to worms even after prolonged exposure”. Moreover, in series [1] (three studies), the “behavioral effects attributable to DR2 activity” value is on record as “much weaker behavioral effects”. For the same compound, the “sensitivity of normal cells” value in series [2] is recorded as “insensitive; also recorded: non-toxic to normal cells”. The “change in cell number” value in series [3] was “actual loss in cell counts in relation to the dose”. Also, the maximal plasma concentration in series [4] (IP injection) was 100 ng/ml and 35 μM. Further, in series [4] (after IP injection), the “time of maximal plasma concentration” value turned out to be 2 h. The compound further gave a concentration at 24 h in series [4] (mouse, plasma, IP injection) of 6 µM. In addition, in series [5], the “concentration of maximal efficacy” value is given as “around 18 μM” and the inhibition of proliferation entry is given as “weak dose-dependent inhibition”. Besides, the toxicity entry in series [6] (incl. gross inspection of organs at necropsy) is “no toxicity”. In series [6] (mouse, in vivo), the behavioral changes result is given as “no behavioral changes” and the body weight result is “no decrease in body weight”. In series [7], the “inhibition of colony formation” value stood at 60%. Also, the “growth of colonies of LNCaP cells cultured with BIC” value in series [8] is reported as “suppresses the growth of androgen-dependent colonies”.
